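These data come from cells grown in 96-well plates and exposed to compound for 48 hours at five concentrations. Abbreviation: GI50, concentration required for 50% inhibition of growth.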 Activity calls are given as the source filed them. Rule as the data show it: active = GI50 up to about 1.1 µM and inactive = higher.
Experiments:
Experiment in all cases: NCI-60 cell line screen, 48 h
HOP-62 = tested on: HOP-62
SK-OV-3 = tested on: SK-OV-3
SF-295 = tested on: SF-295
NCI/ADR-RES = tested on: NCI/ADR-RES
MCF7 = tested on: MCF7
UACC-62 = tested on: UACC-62
NCI-H460 = tested on: NCI-H460
LOX IMVI = tested on: LOX IMVI
SR = tested on: SR
SF-539 = tested on: SF-539
HL-60 = tested on: HL-60
EKVX = tested on: EKVX
U-251 = tested on: U-251
SK-MEL-28 = tested on: SK-MEL-28
OVCAR-3 = tested on: OVCAR-3
SW-620 = tested on: SW-620
SNB-19 = tested on: SNB-19
HOP-92 = tested on: HOP-92
UO-31 = tested on: UO-31
SNB-75 = tested on: SNB-75

SMILES	GI50 (HOP-62)	GI50 (SK-OV-3)	GI50 (SF-295)	GI50 (NCI/ADR-RES)	GI50 (MCF7)	GI50 (UACC-62)	GI50 (NCI-H460)	GI50 (LOX IMVI)	GI50 (SR)	GI50 (SF-539)	GI50 (HL-60)	GI50 (EKVX)	GI50 (U-251)	GI50 (SK-MEL-28)	GI50 (OVCAR-3)	GI50 (SW-620)	GI50 (SNB-19)	GI50 (HOP-92)	GI50 (UO-31)	GI50 (SNB-75)
O=C(NC(C(F)(F)F)(C(F)(F)F)P(=O)(Cc1ccccc1)Cc1ccccc1)C(C(F)(F)F)C(F)(F)F	20.6 µM (inactive)	31.8 µM (inactive)	20.7 µM (inactive)	17.9 µM (inactive)	12.2 µM (inactive)	27.2 µM (inactive)	27.7 µM (inactive)	18.1 µM (inactive)	18.7 µM (inactive)	20.7 µM (inactive)	22.4 µM (inactive)	26.4 µM (inactive)	17.6 µM (inactive)	25.6 µM (inactive)	31.6 µM (inactive)	44.4 µM (inactive)	27.7 µM (inactive)	–	–	–
Cc1ccc(C)n1-c1ccccc1C1C=CN(C(=O)OC(C)(C)C)C=C1	31.4 µM (inactive)	> 100 µM (inactive)	30 µM (inactive)	27.6 µM (inactive)	17.4 µM (inactive)	25.8 µM (inactive)	28.2 µM (inactive)	20.5 µM (inactive)	–	46.3 µM (inactive)	32.7 µM (inactive)	16.4 µM (inactive)	26.3 µM (inactive)	44.9 µM (inactive)	17.8 µM (inactive)	19.2 µM (inactive)	47.6 µM (inactive)	37.6 µM (inactive)	33.1 µM (inactive)	13.5 µM (inactive)
COc1ccc(/C=N/NC(=O)O)cc1	> 100 µM (inactive)	> 100 µM (inactive)	> 100 µM (inactive)	> 100 µM (inactive)	> 100 µM (inactive)	> 100 µM (inactive)	> 100 µM (inactive)	> 100 µM (inactive)	> 100 µM (inactive)	> 100 µM (inactive)	–	> 100 µM (inactive)	> 100 µM (inactive)	> 100 µM (inactive)	> 100 µM (inactive)	> 100 µM (inactive)	> 100 µM (inactive)	–	> 100 µM (inactive)	> 100 µM (inactive)
O=C(O)c1ccccc1/C=N\N=C1NCCCCN1	> 100 µM (inactive)	> 100 µM (inactive)	> 100 µM (inactive)	> 100 µM (inactive)	> 100 µM (inactive)	> 100 µM (inactive)	> 100 µM (inactive)	> 100 µM (inactive)	> 100 µM (inactive)	> 100 µM (inactive)	–	> 100 µM (inactive)	> 100 µM (inactive)	–	> 100 µM (inactive)	> 100 µM (inactive)	> 100 µM (inactive)	–	> 100 µM (inactive)	> 100 µM (inactive)
Fc1ccc(Oc2nc3ccccc3nc2-c2ccccc2)cc1	88.9 µM (inactive)	> 100 µM (inactive)	> 100 µM (inactive)	–	> 100 µM (inactive)	> 100 µM (inactive)	> 100 µM (inactive)	> 100 µM (inactive)	44.6 µM (inactive)	–	13.9 µM (inactive)	> 100 µM (inactive)	50.5 µM (inactive)	> 100 µM (inactive)	> 100 µM (inactive)	> 100 µM (inactive)	> 100 µM (inactive)	76.9 µM (inactive)	> 100 µM (inactive)	–
Cc1c(Cl)c(S(N)(=O)=O)cc2c1N=CNS2(=O)=O	> 100 µM (inactive)	> 100 µM (inactive)	> 100 µM (inactive)	> 100 µM (inactive)	> 100 µM (inactive)	> 100 µM (inactive)	> 100 µM (inactive)	> 100 µM (inactive)	–	–	–	0.507 µM (active)	> 100 µM (inactive)	> 100 µM (inactive)	> 100 µM (inactive)	> 100 µM (inactive)	> 100 µM (inactive)	> 100 µM (inactive)	> 100 µM (inactive)	> 100 µM (inactive)
N#CC(c1nc2ccccc2s1)c1nc(Cl)ncc1Br (stereo unspecified)	34.2 µM (inactive)	36.1 µM (inactive)	42.2 µM (inactive)	30 µM (inactive)	–	–	46 µM (inactive)	29.3 µM (inactive)	–	31.5 µM (inactive)	–	41.8 µM (inactive)	29.4 µM (inactive)	97.9 µM (inactive)	27.2 µM (inactive)	42.6 µM (inactive)	40.6 µM (inactive)	18.2 µM (inactive)	36.7 µM (inactive)	23.2 µM (inactive)
Cc1ccc(OCC2=NN3C(=O)/C(=C\c4ccc([N+](=O)[O-])o4)SC3N2)cc1 (stereo unspecified)	16.6 µM (inactive)	16.3 µM (inactive)	14.8 µM (inactive)	9.04 µM (inactive)	–	–	18.7 µM (inactive)	3.66 µM (inactive)	2.94 µM (inactive)	2 µM (inactive)	1.59 µM (inactive)	12.1 µM (inactive)	15.8 µM (inactive)	12.7 µM (inactive)	1.95 µM (inactive)	2.93 µM (inactive)	17.8 µM (inactive)	2.8 µM (inactive)	15.4 µM (inactive)	15.9 µM (inactive)
O=[N+]([O-])c1sc2ccc(Cl)cc2c1Nc1ccc(Cl)cc1	> 100 µM (inactive)	> 100 µM (inactive)	> 100 µM (inactive)	> 100 µM (inactive)	> 100 µM (inactive)	> 100 µM (inactive)	> 100 µM (inactive)	> 100 µM (inactive)	–	> 100 µM (inactive)	> 100 µM (inactive)	> 100 µM (inactive)	> 100 µM (inactive)	> 100 µM (inactive)	> 100 µM (inactive)	> 100 µM (inactive)	> 100 µM (inactive)	–	> 100 µM (inactive)	> 100 µM (inactive)
COc1cc2c(cc1OC)[C@H](C)N1CCc3cc(OC)c(OC)cc3[C@@H]1C2	–	> 100 µM (inactive)	> 100 µM (inactive)	> 100 µM (inactive)	> 100 µM (inactive)	> 100 µM (inactive)	> 100 µM (inactive)	> 100 µM (inactive)	–	> 100 µM (inactive)	> 100 µM (inactive)	> 100 µM (inactive)	> 100 µM (inactive)	> 100 µM (inactive)	> 100 µM (inactive)	> 100 µM (inactive)	> 100 µM (inactive)	> 100 µM (inactive)	> 100 µM (inactive)	> 100 µM (inactive)
CC(C)(C)c1ccc(-c2nnc(-c3cc(C#N)cc(-c4nnc(-c5ccc(C(C)(C)C)cc5)o4)c3)o2)cc1	60.1 µM (inactive)	> 100 µM (inactive)	> 100 µM (inactive)	> 100 µM (inactive)	–	> 100 µM (inactive)	> 100 µM (inactive)	> 100 µM (inactive)	–	–	–	> 100 µM (inactive)	> 100 µM (inactive)	> 100 µM (inactive)	> 100 µM (inactive)	> 100 µM (inactive)	> 100 µM (inactive)	> 100 µM (inactive)	> 100 µM (inactive)	88.9 µM (inactive)
